Measurements: patent publication US20240343699A1, “DERIVATIVES OF SUBSTITUTED MORPHOLINES AND USES THEREOF” (Supernus Pharmaceuticals, Inc., priority 2023, published 2024)
“And” between values parts separate entries of the source, which are not always exact repeats. Equal entries are not always repeated. Where two headings read alike, the source gives them in different places.

Experiments:
[1] = 80 mg/kg PO; for Tlast: COMPOUND C (parent) in plasma
[2] = Metabolic stability in human intestinal homogenate; assay type: in vitro ADME; conditions: for half-life at 1 μM / microsomal CLint at 1 μM: pH 7.2
Method: Incubation Buffer (PBK): 50 mM potassium phosphate buffer (PBK) was prepared from 1 M potassium phosphate buffer, pH 7.2. […] The dilution of 1 mM intermediate was prepared from 10 mM stock with 90% methanol/water, then […] working solutions were prepared by diluting the 1 mM intermediates with 50 mM PBK. […] Prior to use, the stock solutions were brought to room temperature and thoroughly mixed. […] Cofactors Solutions: the cofactor solution was made at 10 mM of NADPH (nicotinamide-adenine dinucleotide phosphate, reduced form) in 50 mM PBK buffer.
(§1) The incubation was carried out in 96-well plates. The intestinal homogenate mixture solution was added to 96-well plates (80 μL/well) in duplicate. […] Reaction was initiated by adding cofactor solution at 10 µL/well. The plates were incubated at 37° C. in a water bath with shaking. […] The final organic solvent content in the incubation was ≤1%.
At specified time points, i.e., 5, 10, 20, 30 and 60 minutes, NCF60 (no cofactor at 60 min, without adding NADPH replaced with 50 mM PBK buffer) reaction was stopped by adding three volumes of stop solution. The time zero (To) samples were prepared by adding three volumes of stop solution to intestinal homogenate samples, followed by addition of test article or control, and cofactor solution 10 μL/well.
Subsequently, 100 μL of supernatant was removed from each well, diluted with 100 μL pure water and analyzed by LC/MS/MS.
A study was conducted to examine the metabolic stability. […] Positive controls: 7-hydroxycoumarin and Testosterone.

[3] = Metabolic stability in dog liver S9; assay type: in vitro ADME, Beagle dog; conditions: for half-life at 1 μM / microsomal CLint at 1 μM: pH 7.2
Method: (§2) Incubation Buffer (PBK): 50 mM potassium phosphate buffer was prepared from 1 M potassium phosphate buffer, pH 7.2. […] The dilution of […] was prepared by 90% methanol/10% DMSO, then 10 μM working solutions were prepared by diluting the 0.1 mM intermediates with 50 mM PBK. […] Prior to use, the stock solutions were brought to room temperature and thoroughly mixed. […] Cofactors Solutions: the mixture of cofactors solution was made at 10 mM of NADPH and 10 mM of UDPGA in PBK buffer.
as §1, with “liver S9 working solutions were” for “intestinal homogenate mixture solution was”, “mixture” for “solution at”, “μL/well.” for “µL/well.”
(§3) At specified time points, i.e., 5, 10, 20, 30 and 60 minutes, NCF60 (without adding NADPH (Nicotinamide-adenine dinucleotide phosphate, reduced form) and UDPGA (Uridine 5′-diphosphoglucuronic acid trisodium salt) replaced with PBK buffer reaction was stopped by adding three volumes of stop solution. The time zero (To) samples were prepared by adding three volumes of stop solution to liver S9 samples, followed by addition of test article or control, and cofactor mixture solution 10 μL/well.
(§4) Subsequently, 100 μL of supernatant.
(§5) Positive controls: 7-ethoxycoumarin and 7-hydroxycoumarin.

[4] = Tissue binding in CD-1 mouse brain homogenate (equilibrium dialysis); conditions: 2 μM
[5] = In vitro stability in human plasma; assay type: in vitro ADME; conditions: for % Remaining at 60 min (Mean): Human plasma, final concentration 2 μM
Method: Test Article Solutions: COMPOUND A, COMPOUND B and COMPOUND C stock solutions at 10 mM were prepared in dimethyl sulfoxide (DMSO). Further dilution with DMSO was made to prepare 2.0 mM. The working solutions of 50 μM was prepared with 20% MeOH/water. […] Prior to use, the stock solutions were brought to room temperature and thoroughly mixed and prepared same as described above.
Incubations were conducted in 96-well plate format. The time points defined for this study are 0, 5, 15, 30 and 60 minutes.
An appropriate volume of plasma from test species were added to a 96-deep well plate, and COMPOUND A, COMPOUND B and COMPOUND C working solution was spiked into the plasma in duplicate to achieve a final concentration of 2.0 μM. For positive controls, the rat plasma was spiked with enalapril, the dog plasma spiked with bisacodyl and the human plasma was spiked with propantheline. All spiked plasma sample plates were incubated in a water bath at 37° C. with shaking.
At the end of each time point, samples were immediately quenched with three volume of cold quenching solution.
A study was conducted to examine the plasma stability. Test Compounds: COMPOUND D, COMPOUND E, and Viloxazine. Positive controls: Enalapril and Propantheline.

[6] = Metabolic stability in human liver S9; assay type: in vitro ADME; conditions: for half-life at 1 μM / microsomal CLint at 1 μM: pH 7.2
Method: as §2
as §1, with “liver S9 working solutions were” for “intestinal homogenate mixture solution was”, “mixture” for “solution at”, “μL/well.” for “µL/well.”
as §3, §4, §5

[7] = Protein binding in CD-1 mouse plasma (equilibrium dialysis); conditions: dialysis conditions; no binding reported
[8] = human intestinal homogenate, 1 μM, 0 min
[9] = human intestinal homogenate, 1 μM, 5 min
[10] = human intestinal homogenate, 1 μM, 10 min
[11] = human intestinal homogenate, 1 μM, 20 min
[12] = human intestinal homogenate, 1 μM, 30 min
[13] = human intestinal homogenate, 1 μM, 60 min
[14] = human intestinal homogenate, 1 μM, NCF60 (no cofactor at 60 min)
[15] = dog liver S9, 1 μM, NCF60 (no cofactors, 60 min)
[16] = mouse brain homogenate, 4 hr dialysis (COMPOUND A 1 hr)
[17] = human liver S9, 1 μM, NCF60 (no cofactors, 60 min)
[18] = intestinal homogenate, Human intestinal homogenates
[19] = intestinal homogenate, Human intestinal homogenates, read-out: CLint(mic.)
[20] = 1 μM in Beagle Dog liver S9 fractions
[21] = 1 μM in Beagle Dog liver S9 fractions, read-out: CLint(mic.)
[22] = 1 μM in Human liver S9 fractions
[23] = 1 μM in Human liver S9 fractions, read-out: CLint(mic.)

## CCOc1ccccc1OC[C@@H]1CN(C(=O)OC(OC(=O)[C@H](N)C(C)C)C(C)C)CCO1 (some centres unmarked) [COMPOUND C]
[1]; beagle dogs
  Clinical observation (tolerability): well tolerated
[1]; LLOQ 3.0 ng/mL
  plasma concentration of the analog itself: well above LLOQ
[1]; female beagle dogs
  Tlast: 16.0 h
[1]; male beagle dogs
  Tlast: 16.0 h
[2]; [8]
  % Remaining: 100%
  Analyte Peak area/IS Peak area Mean (n = 2): 0.286
[2]; [9]
  % Remaining: 4.4%
  Analyte Peak area/IS Peak area Mean (n = 2): 0.013
[2]; [10]
  % Remaining: 3.0%
  Analyte Peak area/IS Peak area Mean (n = 2): 0.009
[2]; [11]
  % Remaining: 1.3%
  Analyte Peak area/IS Peak area Mean (n = 2): 0.004
[2]; [12]
  % Remaining: 0.67%
  Analyte Peak area/IS Peak area Mean (n = 2): 0.002
[2]; [13]
  % Remaining: 0.08%
  Analyte Peak area/IS Peak area Mean (n = 2): 0.000
[2]; [14]
  % Remaining: 0.12%
  Analyte Peak area/IS Peak area Mean (n = 2): 0.000
[2]; human intestinal homogenate, 1 μM
  half-life at 1 μM: 7.2 min
[2]; human intestinal homogenate, 1 μM, read-out: CLint(HIH)
  microsomal CLint at 1 μM: 192 µL/min/mg
[3]; Beagle, dog liver S9, 1 μM
  half-life at 1 μM: 12 min
[3]; Beagle, dog liver S9, 1 μM, read-out: CLint(LS9)
  microsomal CLint at 1 μM: 115 µL/min/mg
[3]; dog liver S9, 1 μM, 0 min
  % Remaining: 100%
  Analyte Peak area/IS Peak area Mean × 100 (n = 2): 8.27
[3]; dog liver S9, 1 μM, 5 min
  % Remaining: 17%
  Analyte Peak area/IS Peak area Mean × 100 (n = 2): 1.44
[3]; dog liver S9, 1 μM, 10 min
  % Remaining: 12%
  Analyte Peak area/IS Peak area Mean × 100 (n = 2): 0.962
[3]; dog liver S9, 1 μM, 20 min
  % Remaining: 8.7%
  Analyte Peak area/IS Peak area Mean × 100 (n = 2): 0.720
[3]; dog liver S9, 1 μM, 30 min
  % Remaining: 6.1%
  Analyte Peak area/IS Peak area Mean × 100 (n = 2): 0.501
[3]; dog liver S9, 1 μM, 60 min
  % Remaining: 1.41% and 1.4%
  Analyte Peak area/IS Peak area Mean × 100 (n = 2): 0.116
[3]; [15]
  % Remaining: 5.1%
  Analyte Peak area/IS Peak area Mean × 100 (n = 2): 0.418
[4]; dialysis conditions
  stability in mouse brain homogenate: unstable
[4]; mouse brain homogenate, 4 hr
  % Unbound Experimental: 20.9%
[4]; [16]
  Analyte Peak area/IS Peak area CD (brain homogenate side): 0.002 and 0.003
  Analyte Peak area/IS Peak area CR (buffer side): 0.001
[4]; mouse brain homogenate, time zero
  Analyte Peak area/IS Peak area Co (time zero): 0.036 and 0.037 and 0.041
[5]; human plasma, 2.0 μM
  half-life at 2 μM: > 187 min
[5]; human plasma, 2.0 μM, 0 min
  % Remaining: 100%
  Analyte Peak area/IS Peak area Mean (N = 2): 1.99
[5]; human plasma, 2.0 μM, 5 min
  % Remaining: 92.3%
  Analyte Peak area/IS Peak area Mean (N = 2): 1.84
[5]; human plasma, 2.0 μM, 15 min
  % Remaining: 88.3%
  Analyte Peak area/IS Peak area Mean (N = 2): 1.76
[5]; human plasma, 2.0 μM, 30 min
  % Remaining: 86.1%
  Analyte Peak area/IS Peak area Mean (N = 2): 1.71
[5]; human plasma, 2.0 μM, 60 min
  % Remaining: 84.4%
  Analyte Peak area/IS Peak area Mean (N = 2): 1.68
[6]; human liver S9, 1 μM, 0 min
  % Remaining: 100%
  Analyte Peak area/IS Peak area Mean × 100 (n = 2): 10.6
[6]; human liver S9, 1 μM, 5 min
  % Remaining: 7.7%
  Analyte Peak area/IS Peak area Mean × 100 (n = 2): 0.808
[6]; human liver S9, 1 μM, 10 min
  % Remaining: 4.2%
  Analyte Peak area/IS Peak area Mean × 100 (n = 2): 0.446
[6]; human liver S9, 1 μM, 20 min
  % Remaining: 2.8%
  Analyte Peak area/IS Peak area Mean × 100 (n = 2): 0.297
[6]; human liver S9, 1 μM, 30 min
  % Remaining: 1.5%
  Analyte Peak area/IS Peak area Mean × 100 (n = 2): 0.160
[6]; human liver S9, 1 μM, 60 min
  % Remaining: 0.19% and 0.2%
  Analyte Peak area/IS Peak area Mean × 100 (n = 2): 0.020
[6]; [17]
  % Remaining: 0.6%
  Analyte Peak area/IS Peak area Mean × 100 (n = 2): 0.061
[6]; human liver S9, 1 μM
  half-life at 1 μM: 8.12 min
[6]; human liver S9, 1 μM, read-out: CLint(LS9)
  microsomal CLint at 1 μM: 171 µL/min/mg
[7]
  stability in the mouse plasma: instability

## CCOc1ccccc1OCC1CN(C(=O)OC(C)OC(=O)[C@H](N)C(C)C)CCO1 (some centres unmarked) [COMPOUND D]
[2]; Human intestinal homogenates
  % Remaining at 60 min: 0.00%
[2]; [18]
  half-life at 1 μM: 0.85 min
[2]; [19]
  microsomal CLint at 1 μM: 1630 µL/min/mg
[3]; [20]
  % Remaining at 60 min: 3.10%
  half-life at 1 μM: 12.6 min
[3]; [21]
  microsomal CLint at 1 μM: 110 µL/min/mg
[5]
  % Remaining at 60 min (Mean): 77.1%
[6]; [22]
  % Remaining at 60 min: 0.00%
  half-life at 1 μM: 1.86 min
[6]; [23]
  microsomal CLint at 1 μM: 746 µL/min/mg

## CCOc1ccccc1OCC1CN(C(=O)OC(OC(=O)[C@@H](N)C(C)C)C(C)C)CCO1 (some centres unmarked) [COMPOUND E]
[2]; Human intestinal homogenates
  % Remaining at 60 min: 0.90%
[2]; [18]
  half-life at 1 μM: 10.8 min
[2]; [19]
  microsomal CLint at 1 μM: 128 µL/min/mg
[3]; [20]
  % Remaining at 60 min: 0.25%
  half-life at 1 μM: 8.3 min
[3]; [21]
  microsomal CLint at 1 μM: 167 µL/min/mg
[5]
  % Remaining at 60 min (Mean): 90.3%
[6]; [22]
  % Remaining at 60 min: 0.76%
  half-life at 1 μM: 8.9 min
[6]; [23]
  microsomal CLint at 1 μM: 155 µL/min/mg
